Calls of active or inactive are those of the source.
Key:
SH-SY5Y [1] = test: Neuroprotective activity against 6-OHDA induced toxicity in human SH-SY5Y cells assessed as reduction in intracellular ROS accumulation at 1 to 10 uM pretreated for 1 hr followed by 6-OHDA addition after 1 to 6 hrs by DCFH-DA dye based fluorescence spectrophotometric method; format: functional, cell-based
SH-SY5Y [2] = test: Neuroprotective activity against 6-OHDA induced toxicity in human SH-SY5Y cells assessed as reduction in cell viability pretreated for 30 mins followed by 6-OHDA addition after 24 hrs by MTT assay; format: functional, cell-based
SH-SY5Y [3] = test: Neuroprotective activity against 6-OHDA induced toxicity in human SH-SY5Y cells assessed as reduction in LDH release pretreated for 30 mins followed by 6-OHDA addition after 24 hrs by spectrophotometric method; format: functional, cell-based
SH-SY5Y [4] = test: Cytotoxicity against human SH-SY5Y cells assessed as effect on cell viability at 0.5 to 10 uM after 24 hrs by MTT assay; format: cell-based
SH-SY5Y [5] = test: Cytotoxicity against human SH-SY5Y cells assessed as reduction in LDH release at 0.5 to 10 uM after 24 hrs by spectrophotometric method; format: cell-based
SH-SY5Y [6] = test: Neuroprotective activity against 6-OHDA induced toxicity in human SH-SY5Y cells assessed as reduction in nuclear necrosis at 2.5 to 10 uM pretreated for 1 hr followed by 6-OHDA addition after 24 hrs by Hoechst 33258/propidium iodide staining based fluorescence microscopic analysis; format: functional, cell-based
SH-SY5Y [7] = test: Neuroprotective activity against 6-OHDA induced toxicity in human SH-SY5Y cells assessed as reduction in nuclear condensation at 2.5 to 10 uM pretreated for 1 hr followed by 6-OHDA addition after 24 hrs by Hoechst 33258/propidium iodide staining based fluorescence microscopic analysis; format: functional, cell-based
SH-SY5Y [8] = test: Neuroprotective activity against 6-OHDA induced toxicity in human SH-SY5Y cells assessed as reduction in cell shrinkage at 2.5 to 10 uM pretreated for 1 hr followed by 6-OHDA addition after 24 hrs by Hoechst 33258/propidium iodide staining based fluorescence microscopic analysis; format: functional
SH-SY5Y [9] = test: Neuroprotective activity against 6-OHDA induced toxicity in human SH-SY5Y cells assessed as reduction in nuclear fragmentation at 2.5 to 10 uM pretreated for 1 hr followed by 6-OHDA addition after 24 hrs by Hoechst 33258/propidium iodide staining based fluorescence microscopic analysis; format: functional, cell-based
SH-SY5Y [10] = test: Neuroprotective activity against 6-OHDA induced toxicity in human SH-SY5Y cells assessed as reduction in mitochondrial membrane potential loss at 1 to 10 uM pretreated for 1 hr followed by 6-OHDA addition after 1 to 6 hrs by rhodamine123 dye based fluorescence microscopic analysis; format: functional, cell-based
[11] = target: c-Jun N-terminal kinase, JNK (Homo sapiens) (UniProt P45983+P53779+P45984); test: Inhibition of 6-OHDA induced JNK phosphorylation in human SH-SY5Y cells at 2.5 to 10 uM pretreated for 1 hr followed by 6-OHDA addition after 1 hr by Western blot analysis; format: cell-based
[12] = target: RAC-alpha serine/threonine-protein kinase (Homo sapiens) (UniProt P31749); test: Inhibition of 6-OHDA induced AKT phosphorylation in human SH-SY5Y cells at 2.5 to 10 uM pretreated for 1 hr followed by 6-OHDA addition after 1 hr by Western blot analysis; format: cell-based
[13] = target: Glycogen synthase kinase-3 beta (Homo sapiens) (UniProt P49841); test: Inhibition of 6-OHDA induced GSK3beta phosphorylation in human SH-SY5Y cells at 2.5 to 10 uM pretreated for 1 hr followed by 6-OHDA addition after 1 hr by Western blot analysis; format: cell-based
[14] = target: Mitogen-activated protein kinase; ERK1/ERK2 (Homo sapiens) (UniProt P27361+P28482); test: Inhibition of 6-OHDA induced ERK1/2 phosphorylation in human SH-SY5Y cells at 2.5 to 10 uM pretreated for 1 hr followed by 6-OHDA addition after 1 hr by Western blot analysis; format: cell-based
SH-SY5Y [15] = test: Neuroprotective activity against 6-OHDA induced apoptosis in human SH-SY5Y cells assessed as reduction in Bax expression pretreated for 1 hr followed by 6-OHDA addition after 6 to 24 hrs by Western blot analysis; format: functional, cell-based
SH-SY5Y [16] = test: Neuroprotective activity against 6-OHDA induced apoptosis in human SH-SY5Y cells assessed as increase in Bcl-2 expression pretreated for 1 hr followed by 6-OHDA addition after 6 to 24 hrs by Western blot analysis; format: functional, cell-based
SH-SY5Y [17] = test: Neuroprotective activity against 6-OHDA induced apoptosis in human SH-SY5Y cells assessed as reduction in cytochrome-c level pretreated for 1 hr followed by 6-OHDA addition after 6 to 24 hrs by Western blot analysis; format: functional, cell-based
SH-SY5Y [18] = test: Neuroprotective activity against 6-OHDA induced apoptosis in human SH-SY5Y cells assessed as reduction in cleaved caspase-9 level at 2.5 to 10 uM pretreated for 1 hr followed by 6-OHDA addition after 6 to 24 hrs by Western blot analysis; format: functional, cell-based
SH-SY5Y [19] = test: Neuroprotective activity against 6-OHDA induced apoptosis in human SH-SY5Y cells assessed as reduction in cleaved caspase-3 level at 2.5 to 10 uM pretreated for 1 hr followed by 6-OHDA addition after 6 to 24 hrs by Western blot analysis; format: functional, cell-based
SH-SY5Y [20] = test: Neuroprotective activity against 6-OHDA induced apoptosis in human SH-SY5Y cells assessed as reduction in cleaved PARP level at 2.5 to 10 uM pretreated for 1 hr followed by 6-OHDA addition after 6 to 24 hrs by Western blot analysis; format: functional, cell-based
[21] = target: MAP kinase p38 (Homo sapiens) (UniProt O15264+Q15759+Q16539+P53778); conditions: SH-SY5Y, 2.5 to 10 uM
Description: Inhibition of 6-OHDA induced p38 phosphorylation in human SH-SY5Y cells at 2.5 to 10 uM pretreated for 1 hr followed by 6-OHDA addition after 1 hr by Western blot analysis

Chain of RAC-alpha serine/threonine-protein kinase (Homo sapiens) (P31749 whole entry): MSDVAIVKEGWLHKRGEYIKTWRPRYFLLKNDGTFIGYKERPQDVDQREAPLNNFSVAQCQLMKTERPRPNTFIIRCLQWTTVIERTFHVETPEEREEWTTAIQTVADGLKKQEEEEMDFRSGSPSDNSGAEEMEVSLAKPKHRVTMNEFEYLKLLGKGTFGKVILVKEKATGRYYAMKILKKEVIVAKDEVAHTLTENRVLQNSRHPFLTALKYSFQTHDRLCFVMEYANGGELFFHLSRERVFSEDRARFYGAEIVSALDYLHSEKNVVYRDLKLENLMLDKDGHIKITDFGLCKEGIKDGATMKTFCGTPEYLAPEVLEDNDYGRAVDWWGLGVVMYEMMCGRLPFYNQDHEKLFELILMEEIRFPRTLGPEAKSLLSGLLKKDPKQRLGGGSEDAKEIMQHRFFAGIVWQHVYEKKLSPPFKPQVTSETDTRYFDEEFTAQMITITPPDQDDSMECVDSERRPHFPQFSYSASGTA
Chain of Mitogen-activated protein kinase; ERK1/ERK2 (Homo sapiens) (P27361 whole entry, looked up): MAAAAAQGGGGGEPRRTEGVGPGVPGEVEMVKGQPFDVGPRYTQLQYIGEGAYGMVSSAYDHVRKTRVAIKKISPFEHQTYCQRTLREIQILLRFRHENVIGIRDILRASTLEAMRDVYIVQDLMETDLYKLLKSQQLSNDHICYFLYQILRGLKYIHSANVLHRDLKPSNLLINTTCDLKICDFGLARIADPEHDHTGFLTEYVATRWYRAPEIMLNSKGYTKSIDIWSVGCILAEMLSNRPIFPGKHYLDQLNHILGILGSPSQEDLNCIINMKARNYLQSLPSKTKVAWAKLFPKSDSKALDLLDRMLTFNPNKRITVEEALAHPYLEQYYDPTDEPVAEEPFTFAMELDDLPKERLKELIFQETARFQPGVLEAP
Chain of Mitogen-activated protein kinase; ERK1/ERK2 (Homo sapiens) (P28482 whole entry, looked up): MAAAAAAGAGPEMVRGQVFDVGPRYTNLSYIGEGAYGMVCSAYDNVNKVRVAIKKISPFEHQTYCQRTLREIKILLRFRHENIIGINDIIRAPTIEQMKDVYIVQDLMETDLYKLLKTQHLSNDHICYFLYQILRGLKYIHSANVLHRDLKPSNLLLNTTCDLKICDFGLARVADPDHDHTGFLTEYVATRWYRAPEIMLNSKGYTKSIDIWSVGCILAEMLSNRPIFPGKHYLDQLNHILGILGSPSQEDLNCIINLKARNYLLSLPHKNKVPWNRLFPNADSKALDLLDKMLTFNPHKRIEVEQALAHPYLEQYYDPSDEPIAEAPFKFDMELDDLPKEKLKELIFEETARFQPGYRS
Chain of Glycogen synthase kinase-3 beta (Homo sapiens) (P49841 whole entry, looked up): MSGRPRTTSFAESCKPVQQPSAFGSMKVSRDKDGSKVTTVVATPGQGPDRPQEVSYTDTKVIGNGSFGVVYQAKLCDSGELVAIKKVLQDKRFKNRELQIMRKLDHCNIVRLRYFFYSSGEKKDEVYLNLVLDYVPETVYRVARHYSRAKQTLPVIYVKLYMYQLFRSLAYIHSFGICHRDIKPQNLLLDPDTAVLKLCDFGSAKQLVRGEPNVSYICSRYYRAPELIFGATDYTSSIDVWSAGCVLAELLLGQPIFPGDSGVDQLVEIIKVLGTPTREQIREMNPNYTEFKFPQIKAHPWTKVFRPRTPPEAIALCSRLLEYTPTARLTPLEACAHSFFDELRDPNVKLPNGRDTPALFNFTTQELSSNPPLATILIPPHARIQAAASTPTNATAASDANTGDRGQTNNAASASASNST

COc1ccc(-c2cc(=O)c3c(O)cc(O)cc3o2)cc1 [ACACETIN]
active: Activity (SH-SY5Y [1]) | Activity (SH-SY5Y [2]) Dose-dependent effect | Activity (SH-SY5Y [3]) Dose-dependent effect | Activity (SH-SY5Y [6]) | Activity (SH-SY5Y [7]) | Activity (SH-SY5Y [8]) | Activity (SH-SY5Y [9]) | Activity (SH-SY5Y [10]) | inhibition [11] | inhibition [12] | inhibition [13] | Activity (SH-SY5Y [15]) Dose-dependent effect | Activity (SH-SY5Y [16]) Dose-dependent effect | Activity (SH-SY5Y [17]) Dose-dependent effect | Activity (SH-SY5Y [18]) | Activity (SH-SY5Y [19]) | Activity (SH-SY5Y [20]) | inhibition [21]
inactive: inhibition [14]
Non-Toxic: Activity (SH-SY5Y [4]) | Activity (SH-SY5Y [5])

Reference: ChEMBL document CHEMBL4177639, “Acacetin inhibits neuronal cell death induced by 6-hydroxydopamine in cellular Parkinson's disease model” (Bioorg Med Chem Lett, 2017)
